According to ChEMBL document CHEMBL2331434, “Jatropholane-type diterpenes from Euphorbia sikkimensis” (J Nat Prod, 2013):

Key:
A549 = experiment: Cytotoxicity against human A549 cells assessed as inhibition of cell viability after 48 hrs by MTT assay; format: functional, cell-based; details: A549, 48 h
Danio rerio [1] = species: Danio rerio; experiment: Antiangiogenic activity against wild AB-type transgenic zebrafish embryo expressing green fluorescent protein-labeled VEGFR2 assessed as inhibition of growth of intersegmental vessels at 33.6 uM treated at 24 hrs post fertilization measured after 48 hrs by alkaline phosphatase staining; format: functional
Danio rerio [2] = species: Danio rerio; experiment: Antiangiogenic activity against wild AB-type transgenic zebrafish embryo expressing green fluorescent protein-labeled VEGFR2 assessed as inhibition of growth of intersegmental vessels treated at 24 hrs post fertilization measured after 48 hrs by alkaline phosphatase staining; format: functional, organism-based

Row | growth inhibition (GI) (Danio rerio [2]) | Structure (SMILES) | IC50 (A549) [µM] | growth inhibition (GI) (Danio rerio [1]) [%] | IC50 (Danio rerio [2]) [µM]
1 |  | C=C1CC[C@H]2[C@@H]([C@@H]3[C@@H]1C1=C(C[C@H](C)C1=O)C(=O)[C@H]3C)C2(C)C [SIKKIMENOID A] | > 10 |  | 
2 | Dose-dependent effect | C=C1CC[C@H]2[C@@H]([C@@H]3[C@@H]1C1=C(C[C@@H](C)C1=O)C(=O)[C@H]3C)C2(C)C [SIKKIMENOID B] | > 10 | 41.1 | 43
3 |  | C=C1CC[C@H]2[C@@H]([C@@H]3[C@@H]1C1=C(C[C@](C)(O)C1=O)C(=O)[C@H]3C)C2(C)C [SIKKIMENOID C] | > 10 |  | 
4 |  | C=C1CC[C@H]2[C@@H]([C@@H]3[C@@H]1C1=C(C[C@@](C)(O)C1=O)C(=O)[C@H]3C)C2(C)C [SIKKIMENOID D] | > 10 |  | 
5 |  | Clc1ccc(Nc2nnc(Cc3ccncc3)c3ccccc23)cc1 [VATALANIB] |  |  | 0.23
